Among the test systems are Malme-3M; SNB-75; HCT-15; 786-0; SR; TK-10; HT-29; CAKI-1; IGROV-1; CCRF-CEM; MCF7; Hs-578T; EKVX; UO-31; K562; HOP-62; NCI/ADR-RES; PC-3; UACC-62; HCT-116.
Common to all, as to assay: NCI anticancer screen, dose series, 48 h

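Values below derive from 48-hour exposures of cells grown in 96-well plates, with endpoints linearly interpolated between the two concentrations bracketing the appropriate inhibition level. Here, GI50 denotes the concentration required for 50% inhibition of growth.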 Activity calls are given as the source filed them. No stated cut-off is given here; in the data, active = GI50 up to about 1.1 µM and inactive = higher.

On to `O=C1c2ccccc2C(=O)c2c1oc(=O)c1ccccc21`, for which the GI50 was 2.63 µM (inactive) with Malme-3M; 5.24 µM (inactive) with SNB-75; 3.26 µM in the test on HCT-15; 5.35 µM (inactive) with 786-0; 3.75 µM (inactive) with SR; 8.89 µM (inactive) with TK-10. The GI50 in the test on HT-29 is 1.4 µM (inactive); in the test with CAKI-1, 6.21 µM (inactive); with IGROV-1, 3.73 µM (inactive); in the test on CCRF-CEM, 1.93 µM (inactive); in the test with MCF7, 2.21 µM (inactive); with Hs-578T, 6.43 µM (inactive). Besides, the GI50 with EKVX is 5.77 µM (inactive); in the test with UO-31 it was 5.22 µM (inactive); in the test on K562, 4 µM (inactive); in the test on HOP-62, 8.13 µM (inactive); in the test with NCI/ADR-RES, 1.94 µM (inactive); in the test on PC-3, 5.37 µM (inactive). Besides, the GI50 in the test on UACC-62 was 4 µM (inactive); with HCT-116 it was 1.03 µM (active).
For the compound `CC(C)OC(=O)C(NC(=O)C(CC(=O)OCc1ccccc1)NC(=O)OCc1ccccc1)NC(=O)C1C(C)(C)CCC1(C)C` (stereo not given), the GI50 in the test with Malme-3M is 18 µM (inactive); in the test on SNB-75, 2.68 µM (inactive); in the test on HCT-15 it was 11 µM; in the test on 786-0, 2.22 µM (inactive); in the test on SR, 2.64 µM (inactive); with TK-10, 18.8 µM (inactive). For the same compound, the GI50 in the test on HT-29 was 3.58 µM (inactive); in the test on CAKI-1 it was 9.98 µM (inactive); in the test on IGROV-1, 13.7 µM (inactive); with CCRF-CEM, 3.18 µM (inactive); in the test with MCF7 it was 14.9 µM (inactive); in the test with Hs-578T, 6.98 µM (inactive). Further, the GI50 is 3.85 µM (inactive) in the test with EKVX; 4.84 µM (inactive) in the test with UO-31; 4.31 µM (inactive) in the test with K562; 6.56 µM (inactive) in the test on HOP-62; 4.98 µM (inactive) in the test on NCI/ADR-RES; 2.8 µM (inactive) with PC-3. The GI50 with UACC-62 is 20.7 µM (inactive); with HCT-116, 3.61 µM (inactive).
In the case of `Cn1c2ccccc2n2c(N=O)c(-c3ccccc3)nc12`, the GI50 in the test with Malme-3M was 69.5 µM (inactive); in the test on SNB-75, 5.08 µM (inactive); in the test on HCT-15, 20.1 µM; in the test with 786-0, > 100 µM (inactive); in the test with SR, 55.1 µM (inactive); in the test with TK-10, 51.8 µM (inactive). The GI50 was 27.7 µM (inactive) in the test with HT-29; 39.7 µM (inactive) in the test on CAKI-1; 25.5 µM (inactive) with IGROV-1; 30.5 µM (inactive) with CCRF-CEM; 29 µM (inactive) in the test on MCF7; 70.3 µM (inactive) in the test on Hs-578T. The GI50 with EKVX is 19.4 µM (inactive); in the test on UO-31, 32.5 µM (inactive); in the test on K562 it was > 100 µM (inactive); in the test on HOP-62 it was 5.52 µM (inactive); with NCI/ADR-RES it was 18.4 µM (inactive); with PC-3 it was 96.6 µM (inactive). The GI50 was 56.5 µM (inactive) in the test on UACC-62 and 87.9 µM (inactive) with HCT-116.
In the case of `CC12CCC(C(=O)n3c1nc1ccccc13)C(C)(C)O2` (stereo not given), the GI50 is > 100 µM (inactive) in the test with Malme-3M; 15.6 µM (inactive) in the test on SNB-75; > 100 µM in the test on HCT-15; > 100 µM (inactive) with 786-0; > 100 µM (inactive) in the test with SR; > 100 µM (inactive) in the test on TK-10. The GI50 was > 100 µM (inactive) in the test with HT-29; > 100 µM (inactive) with CAKI-1; > 100 µM (inactive) in the test with IGROV-1; > 100 µM (inactive) in the test with CCRF-CEM; > 100 µM (inactive) in the test on MCF7; 16.3 µM (inactive) in the test on Hs-578T. The GI50 with EKVX is > 100 µM (inactive); with UO-31, 75.3 µM (inactive); in the test on K562 it was > 100 µM (inactive); in the test on HOP-62 it was > 100 µM (inactive); in the test on NCI/ADR-RES, > 100 µM (inactive); in the test on PC-3, > 100 µM (inactive). The GI50 with UACC-62 and in the test with HCT-116 was > 100 µM (inactive) in each case.
Take `O=C1C(CN2CCCCC2)CCC1CN1CCCCC1` (stereo not given): the GI50 with Malme-3M is 17.7 µM (inactive); in the test on SNB-75, > 47.8 µM (inactive); in the test on HCT-15, 20 µM; with 786-0, 19.5 µM (inactive); in the test with SR it was 1.6 µM (inactive); with TK-10, 17.8 µM (inactive). The GI50 is 20.9 µM (inactive) with HT-29; 9.48 µM (inactive) in the test on CAKI-1; 32.1 µM (inactive) in the test on IGROV-1; 1.06 µM (active) with CCRF-CEM; 21.9 µM (inactive) with MCF7; > 51.3 µM (inactive) in the test with Hs-578T. Besides, the GI50 is > 100 µM (inactive) in the test with EKVX; 15 µM (inactive) with UO-31; 1.2 µM (inactive) in the test on K562; > 100 µM (inactive) in the test on HOP-62; 37.4 µM (inactive) in the test with NCI/ADR-RES; 27.1 µM (inactive) with PC-3. Also, the figures for the GI50 in the test with UACC-62 and with HCT-116 were 17.3 µM (inactive) and 24.5 µM (inactive), respectively.
With `CSc1nc(=O)c2nc(-c3cccs3)c(-c3cccs3)nc2n1C`, the GI50 is 50.9 µM (inactive) with Malme-3M; 18.7 µM (inactive) in the test on SNB-75; > 100 µM with HCT-15; 30.2 µM (inactive) in the test on 786-0; > 100 µM (inactive) in the test on SR; > 100 µM (inactive) in the test with TK-10. In addition, the GI50 was > 100 µM (inactive) in the test on HT-29; 39.6 µM (inactive) in the test on CAKI-1; 43.5 µM (inactive) with IGROV-1; > 100 µM (inactive) in the test on CCRF-CEM; 24 µM (inactive) in the test with MCF7; 35.6 µM (inactive) with Hs-578T. The GI50 was 27.6 µM (inactive) with EKVX; 33.7 µM (inactive) with UO-31; > 100 µM (inactive) in the test with K562; 20 µM (inactive) in the test with HOP-62; 50.2 µM (inactive) in the test with NCI/ADR-RES; 40.9 µM (inactive) with PC-3. The GI50 with UACC-62 was 41.7 µM (inactive); in the test with HCT-116 it was > 100 µM (inactive).
Consider `CN(c1ccccc1Cl)S(=O)(=O)c1ccc([N+](=O)[O-])cc1`, for which the GI50 in the test on Malme-3M is > 100 µM (inactive); with SNB-75, > 100 µM (inactive); with HCT-15, > 100 µM; in the test with 786-0 it was > 100 µM (inactive); with SR it was > 100 µM (inactive); in the test with TK-10 it was > 100 µM (inactive). Besides, the GI50 in the test on HT-29, in the test on CAKI-1, in the test on IGROV-1, in the test with CCRF-CEM, in the test on MCF7 and with Hs-578T was > 100 µM (inactive) each time. For the same compound, the GI50 in the test with EKVX, in the test with UO-31, in the test on K562, with HOP-62, in the test on NCI/ADR-RES and with PC-3 was > 100 µM (inactive) each time. The GI50 in the test on UACC-62 and in the test with HCT-116 was > 100 µM (inactive) each time.
`O=C(c1ccccc1)c1cc[n+](C2=C([N-]S(=O)(=O)c3ccccc3)C(=O)c3ccccc3C2=O)cc1`: the GI50 in the test on Malme-3M was 4.34 µM (inactive); with SNB-75 it was 11.6 µM (inactive); in the test with HCT-15 it was 14.4 µM; in the test on 786-0, 7.13 µM (inactive); in the test on SR, 3.08 µM (inactive); in the test on TK-10, 18.3 µM (inactive). Also, the GI50 with HT-29 was 14.4 µM (inactive); in the test on CAKI-1, 2.36 µM (inactive); in the test on IGROV-1 it was 9.35 µM (inactive); in the test on CCRF-CEM, 2.1 µM (inactive); with MCF7, 8.79 µM (inactive); in the test on Hs-578T it was 3.66 µM (inactive). Also, the GI50 is 14 µM (inactive) in the test with EKVX; 11.7 µM (inactive) in the test with UO-31; 2.65 µM (inactive) with K562; 10.6 µM (inactive) in the test on HOP-62; 9.38 µM (inactive) in the test on NCI/ADR-RES; 11.1 µM (inactive) in the test on PC-3. Moreover, the GI50 in the test with UACC-62 is 1.88 µM (inactive); with HCT-116, 11.3 µM (inactive).

These data come from ChEMBL document CHEMBL1201862, “PubChem BioAssay data set” (2004).
